Test results as given in ChEMBL document CHEMBL5390244, “Riboflavin interactions with the chicken isolated carrier protein” (Bioorg Med Chem Lett, 2023).
Calls of active or inactive are those of the source. No cut-off for these calls is given here.

How the values were obtained:
[1] = target: T1, Riboflavin-binding protein (Gallus gallus) (UniProt P02752); assay: Binding affinity to chicken riboflavin binding protein assessed as binding energy by fluorescence based analysis
T1 sequence (whole entry): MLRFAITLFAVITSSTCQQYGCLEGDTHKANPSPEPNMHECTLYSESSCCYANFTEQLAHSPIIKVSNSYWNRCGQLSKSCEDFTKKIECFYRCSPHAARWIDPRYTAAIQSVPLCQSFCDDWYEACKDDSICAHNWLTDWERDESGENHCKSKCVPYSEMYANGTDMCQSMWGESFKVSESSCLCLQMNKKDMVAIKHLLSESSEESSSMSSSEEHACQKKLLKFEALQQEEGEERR

[2] = target: T1, Riboflavin-binding protein (Gallus gallus); assay: Binding affinity to chicken riboflavin binding protein assessed as decrease in fluorescence intensity at upto 250 uM by fluorescence based assay

Activity [1]	Activity [2]	Structure (SMILES)
2 kcal/mol	Active	Cc1cc2nc3c(=O)[nH]c(=O)nc-3n(CCCCCCO)c2cc1C
-11.9 kcal/mol	Active	Cc1cc2nc3c(=O)[nH]c(=O)nc-3n(C[C@H](O)[C@H](O)[C@H](O)CO)c2cc1C
